Experimental data: patent US5939578A, “Vasomolol: an ultra short-acting and vasodilatory vanilloid type β - adrenoceptor antagonist” (Lin; Tong-Ho, priority 1996, dated 1999)

Experiments:
[1] = system: phenylephrine-induced pressor response; experiment: Inhibition of phenylephrine-induced pressor response during intravenous infusion; format: in vivo, reserpinized rats; conditions: infusion 300 μg/kg/min; phenylephrine 10 μg/kg i.v.; data not shown
Experimental: The method reported in Gen. Pharmacol. 24, 1425, 1993 (by inventor group),
phenylephrine (10 μg/klg, i.v.)

[2] = system: right atria and left atrial strips; experiment: Intrinsic sympathomimetic activity in isolated right atria and left atrial strips; design: species or system reserpinized guinea-pigs; conditions: for intrinsic sympathomimetic activity: effect on heart rate and contractility: cumulative concentrations, in words
Experimental: Animals were pretreated with reserpine (10 mg/kg, i.p.) 24 hr prior to the experiment described in Naunyn-Schmiedeberg's Arch. […] All preparations including isolated right atria and left atria strips were studied.
All measurements are expressed as mean percentages of the control frequency or force in the same preparation.

[3] = Blood pressure and heart rate responses to intravenous injection in anesthetized rats; format: in vivo, pentobarbital-anesthetized normotensive Wistar rats
Experimental: Measurement of blood pressure and heart rate
The method reported in Gen.
vasomolol (0.5, 1.0, 3.0 mg/kg)

[4] = system: isolated rat thoracic aorta; experiment: Inhibition of phenylephrine and high K+ induced contractions of isolated rat aorta (vasodilatation effect)
Experimental: Male rats weighing 200-250 g were sacrificed by a blow on the head and the thoracic aorta was removed and cleaned of all loosely adhering tissue. The thoracic aorta was cut from an area close to the aortic arch, immediately placed in a physiological solution, and trimmed to 2-4 mm in length as described in Gen. Pharmacol. 24, 1425, 1993 (by inventor group) The rings were then mounted with a tension of 1.0 g between parallel hooks in a 10 ml organ bath containing a physiological solution(mM):NaCl 112; KCl5.0; NaHCO3 25; KH2 PO4 1.0; CaCl2 1.25; MgSO4 1.2; and glucose 11.5]. The bath was maintained at 37° C. and aerated with a mixture of 95% O2 and 5% CO2. The tension of the aortic rings were recorded isometrically by means of a force displacement transducer (UGO, Model 7004, Italy) connected to an amplifier (COULBOURN, Model S72-25, U.S.A.). Before the start of the experiments, all preparations were allowed to equilibrate for 1.0 hr in the physiologic solution.
Effects of vasomolol on (A) phenylephrine(10^-5 M) and (B) high K^+ (75 mM) induced contraction in rat thoracic aorta.

[5] = target: T1, β1-adrenoceptor (left atrium) (Cavia porcellus, UniProt H0W3H1); experiment: β-adrenoceptor antagonism in isolated electrically driven left atria (isoproterenol inotropic response); design: species or system guinea-pig
T1 construct: Spontaneously-beating right atria were removed from the hearts and mounted in a 10 ml organ bath; from tissue; host or cells: isolated guinea-pig (Hartley) right and left atria
Experimental: In the isolated left atria, quiescent left atria were dissected free of connective tissue and mounted in organ chambers under a resting tension of 0.5 g. […] Cumulative concentration-response curves to the positive inotropic effects of (-) isoproterenol were obtained in the absence and presence of various concentrations of a test compound. An incubation time of 30 min was allowed for the test compound. Data were calculated as a percentage of the increase in force induced by (-) isoproterenol.
(§1) The pA2 values and slope values were calculated from individual Schild plots by regression analysis. The β1 /β2 -selectivity ratio was obtained from the antilogarithm of the difference between the mean pA2 values obtained from right atrium and trachea.
(§2) Mean cumulative concentration-response curves are shown for the positive chronotropic responses to (-) isoproterenol in spontaneously-beating guinea-pig right atria, positive inotropic responses to (-) isoproterenol in electrically driven guinea-pig left atria, and relaxant effects to (-) isoproterenol in guinea-pig spontaneous tone tracheal strips in the absence (.smallcircle.) or presence of 0.01 (.circle-solid.), 0.1, 1 (.tangle-soliddn.) or 10 (.diamond.) μM of vasomolol.

[6] = target: T2, β2-adrenoceptor (trachea) (Cavia porcellus, UniProt Q8K4Z4); experiment: β-adrenoceptor antagonism in isolated tracheal strips (isoproterenol-induced relaxation); design: species or system guinea-pig
T2 construct: Guinea-pig trachea were cleaned of extraneous connective tissue and cut into spiral strips; from tissue; host or cells: isolated guinea-pig tracheal spiral strips
Experimental: Guinea-pig trachea were cleaned of extraneous connective tissue and cut into spiral strips as described in Gen. […] This spiral strip was cut into two equal segments and both were suspended in organ baths filled with 20 ml of Kreb's solution. […] An initial basal tension of 2 g was applied to each tracheal strip and the tissue was allowed to gain tone spontaneously until a steady level was reached (60 min).
as §1, §2

[7] = target: T3, β1-adrenoceptor (right atrium) (Cavia porcellus, UniProt H0W3H1); experiment: β-adrenoceptor antagonism in isolated spontaneously-beating right atria (isoproterenol chronotropic response); design: species or system guinea-pig
T3 construct: Spontaneously-beating right atria were removed from the hearts and mounted in a 10 ml organ bath; from tissue; host or cells: isolated guinea-pig (Hartley) right and left atria
Experimental: Guinea-pigs (Hartley) of either sex weighing between 350 and 500 g were sacrificed by a blow on the head. Their hearts and trachea were quickly excised and excess tissue was removed. […] The atrial strip was prestretched to a baseline tension of 0.2 g. […] The atria were then allowed a 30-60 min washout period to estabilize, after which time various concentrations of the test compound were incubated with the atrium 30 min before the cumulative concentrations of the (-) isoproterenol ([…]) was added. All responses to (-) isoproterenol were calculated as a percentage of the maximum control response to (-) isoproterenol.
as §1, §2

[8] = 0.5 mg/kg i.v., mean ± SEM (n = 8)
[9] = 1.0 mg/kg i.v., mean ± SEM (n = 8)
[10] = 3.0 mg/kg i.v., mean ± SEM (n = 8)
[11] = mean ± SEM, six to eight experiments, 30 min

T1 sequence (H0W3H1 1-470): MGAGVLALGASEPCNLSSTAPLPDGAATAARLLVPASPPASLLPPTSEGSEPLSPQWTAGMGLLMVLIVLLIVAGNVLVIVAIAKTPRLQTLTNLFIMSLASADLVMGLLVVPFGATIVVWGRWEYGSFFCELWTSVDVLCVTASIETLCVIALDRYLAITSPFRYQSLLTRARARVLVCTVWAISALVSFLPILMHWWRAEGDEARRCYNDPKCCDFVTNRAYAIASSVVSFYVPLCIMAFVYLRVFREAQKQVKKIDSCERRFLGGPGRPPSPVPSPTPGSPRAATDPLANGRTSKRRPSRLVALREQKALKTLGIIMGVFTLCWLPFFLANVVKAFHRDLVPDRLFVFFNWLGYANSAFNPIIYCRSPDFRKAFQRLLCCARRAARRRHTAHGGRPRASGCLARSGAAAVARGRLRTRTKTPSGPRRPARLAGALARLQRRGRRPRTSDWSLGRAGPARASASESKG
T3 sequence (H0W3H1 1-470): as above
T2 sequence (Q8K4Z4 whole entry): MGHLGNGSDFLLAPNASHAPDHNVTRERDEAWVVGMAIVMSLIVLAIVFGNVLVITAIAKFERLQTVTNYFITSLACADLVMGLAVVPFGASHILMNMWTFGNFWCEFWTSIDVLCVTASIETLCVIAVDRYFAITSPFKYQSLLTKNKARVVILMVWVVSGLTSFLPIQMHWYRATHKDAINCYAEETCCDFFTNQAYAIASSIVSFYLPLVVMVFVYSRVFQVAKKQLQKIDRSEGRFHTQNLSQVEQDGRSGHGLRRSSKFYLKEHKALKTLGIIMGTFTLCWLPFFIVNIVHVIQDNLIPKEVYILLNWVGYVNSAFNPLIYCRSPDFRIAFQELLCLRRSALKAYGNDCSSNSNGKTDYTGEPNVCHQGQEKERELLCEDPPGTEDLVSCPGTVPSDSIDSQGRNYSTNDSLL

pA2 value, β1, left atrium [5, 11]: 7.44 ± 0.03 | Schild slope, left atrium ([5]; regression of Schild plot): 0.89 ± 0.02 | relative β2-adrenoceptor blocking potency ([6]; in words): less potent than propranolol | pA2 value, β2, trachea ([6]; mean ± SEM, six to eight experiments, 60 min): 5.81 ± 0.11 | antagonism of (-) isoproterenol-induced relaxation ([6]; printed 5×10^8 -10^6 M, tracheal strips): competitively antagonized | Schild slope, trachea ([6]; regression of Schild plot): 0.81 ± 0.06 | pA2 value, β1, right atrium [7, 11]: 7.41 ± 0.05 | Schild slope, right atrium ([7]; regression of Schild plot): 0.90 ± 0.04
SMILES: CCOC(=O)c1ccc(OCC(O)CNC(C)(C)C)c(OC)c1 (centres unmarked) [Vasomolol]
inhibition of phenylephrine-induced pressor response [1]: could not significantly inhibit | intrinsic sympathomimetic activity: effect on heart rate and contractility [2]: did not induce an increase in the heart rate or contractility | intrinsic sympathomimetic activity: effect on heart rate and contractility ([2]; listed as vasomolol): Lack of intrinsic sympathomimetic activity | concentration causing negative inotropic and chronotropic effects ([2]; right atria rate and left atria tension): ≥ 10^-5 M | BP change [3, 8]: -4.5 ± 1.4 mm Hg | HR change [3, 8]: -20.0 ± 2.3 bpm | bradycardia duration [3, 8]: 3.5 ± 0.7 min | BP change [3, 9]: -6.5 ± 1.9 mm Hg | HR change [3, 9]: -34.5 ± 2.8 bpm | bradycardia duration [3, 9]: 7.2 ± 0.8 min | BP change [3, 10]: -10.8 ± 1.2 mm Hg | HR change [3, 10]: -50.0 ± 3.4 bpm | bradycardia duration [3, 10]: 8.0 ± 1.2 min | bradycardia duration ([3]; i.v. injection): less than 10 min | blood pressure and heart rate effect ([3]; i.v. injection 0.5, 1.0, 3.0 mg/kg, in words): produced a hypotensive action and a decrease in heart rate | inhibition of high K+ induced contraction ([4]; K+ 75 mM, vasomolol printed 10^6 -10^5 M): significantly inhibited | relaxation sensitivity, high K+ versus phenylephrine ([4]; in words): more sensitive in high K^+ than in phenylephrine-contracted aorta preparations | inhibition of phenylephrine-induced contraction ([4]; phenylephrine printed 10^5 M, vasomolol printed 10^6 -10^5 M): significantly inhibited | antagonism of isoproterenol-induced positive inotropic responses ([5]; electrically driven left atrial strips): produced dose-dependent rightward shifts of the cumulative concentration-response curves to isoproterenol | relative β-adrenoceptor blocking potency ([5]; guinea-pig atria, in words): more potent than atenolol, slightly more potent than metoprolol, and was less potent than propranolol | antagonism of isoproterenol-induced positive chronotropic actions ([7]; 5×10^-8 -10^-6 M, right atrial strips): caused a dose-dependent parallel shift to the right of the isoproterenol concentration-response curves
